Laboratory results taken from patent US20150057317A1, “GABR-A2 DIAGNOSTIC” (AstraZeneca AB, priority 2011, published 2015).

Assays:
[1] = system: patients with depression (poor responders to medications used in the treatment of depression); assay: Phase II study in depression, MADRS response by GABR-A2 SNP genotype; type: in vivo, human; details: for Additive genetic effect of minor allele on change in MADRS total score: treatment group
Description: Genomic DNA samples were collected from individuals enrolled in a Phase 11 study of COMPOUND A (total number of patients in the study was 152). The Phase II study was designed to measure the efficacy of COMPOUND A in the treatment of depression. Patients were selected for enrolment in the aforementioned Phase II study on the basis of their prior treatment history which defined them as poor responders to medications used in the treatment of depression. Common genetic variations (single nucleotide polymorphisms, SNPs) in genes encoding brain derived neurotrophic factor (BDNF) and the alpha-2 subunit of the GABAA receptor (GABR-A2) were tested using TaqMan® assays to measure their influence on the response to treatment for depression with COMPOUND A (an N-methyl-D-aspartate (NMDA) antagonist). Montgomery-Åsberg Depression Rating Scale (MADRS; Montgomery SA, Asberg M (April 1979). “A new depression scale designed to be sensitive to change”. British Journal of Psychiatry 134 (4): 382-89) was used as a measurement of treatment response. Thirty-two SNPs were selected for genotyping in GABR-A2 and six SNPs in BDNF.
However, the results from the GABR-A2 gene did indicate an influence on change in MADRS from baseline for a number of SNPs, with the rs3756007 SNP showing the strongest association. Table 1 lists those genetic variations tested for which, on average, the minor allele positively influenced change in MADRS after treatment with COMPOUND A. The P value from the patients treated with the drug (treatment group) is also shown (therapeutic_pvalue).
TaqMan® assays were used to detect the particular SNPs within the target genes. Each TaqMan® assay is specific for a given mutation or allele, i.e. designed to detect an alternate base relative to another base at a given position. each TaqMan® assay contains sequence-specific forward and reverse primers to amplify the polymorphic sequence of interest in the target gene along with TaqMan® probes labelled with different fluorescent tags to identify the target base (SNP). The TaqMan® assays were ordered from Applied Biosystems® and where possible Pre-Designed SNP Genotyping Assays were used. Each of the GABR-A2 SNPs showing association with an influence on the response to treatment for depression with COMPOUND A were detected using the commercially available Pre-Designed SNP Genotyping Assays.
For each SNP assay, genomic DNA was extracted from the clinical sample and the TaqMan® assay was carried out using the primers in Table 2. For the TaqMan® reaction approximately 10 ng of genomic DNA was used, in a total reaction volume of 2 ul. The reaction used TaqMan® Genotyping Master Mix (Applied Biosystems®, part number 4381657). The TaqMan® Genotyping Master Mix was diluted 1:1 with deionised water and the TaqMan® assay used at 80× concentration. The reaction was then securely sealed before Thermal Cycling. Cycle conditions: 95° C. for 10 minutes followed by 40 cycles of 92° C. for 15 seconds, 60° C. for 60 seconds in a Thermal Cycler instrument (KBiosystems DT-108 Thermal Cycler). The plate was then analysed on the Applied Biosystems® 7900HT Sequence Detection System using the pre-programmed “Allelic Discrimination” analysis in the Applied Biosystems® SDS v2.4 Software.

[2] = target: NR1A/2A subtype of the NMDA receptor (Homo sapiens, UniProt Q05586+Q12879); details: cited from earlier work
Sequence of NR1A/2A subtype of the NMDA receptor (Q12879 23-1464, other chains not shown): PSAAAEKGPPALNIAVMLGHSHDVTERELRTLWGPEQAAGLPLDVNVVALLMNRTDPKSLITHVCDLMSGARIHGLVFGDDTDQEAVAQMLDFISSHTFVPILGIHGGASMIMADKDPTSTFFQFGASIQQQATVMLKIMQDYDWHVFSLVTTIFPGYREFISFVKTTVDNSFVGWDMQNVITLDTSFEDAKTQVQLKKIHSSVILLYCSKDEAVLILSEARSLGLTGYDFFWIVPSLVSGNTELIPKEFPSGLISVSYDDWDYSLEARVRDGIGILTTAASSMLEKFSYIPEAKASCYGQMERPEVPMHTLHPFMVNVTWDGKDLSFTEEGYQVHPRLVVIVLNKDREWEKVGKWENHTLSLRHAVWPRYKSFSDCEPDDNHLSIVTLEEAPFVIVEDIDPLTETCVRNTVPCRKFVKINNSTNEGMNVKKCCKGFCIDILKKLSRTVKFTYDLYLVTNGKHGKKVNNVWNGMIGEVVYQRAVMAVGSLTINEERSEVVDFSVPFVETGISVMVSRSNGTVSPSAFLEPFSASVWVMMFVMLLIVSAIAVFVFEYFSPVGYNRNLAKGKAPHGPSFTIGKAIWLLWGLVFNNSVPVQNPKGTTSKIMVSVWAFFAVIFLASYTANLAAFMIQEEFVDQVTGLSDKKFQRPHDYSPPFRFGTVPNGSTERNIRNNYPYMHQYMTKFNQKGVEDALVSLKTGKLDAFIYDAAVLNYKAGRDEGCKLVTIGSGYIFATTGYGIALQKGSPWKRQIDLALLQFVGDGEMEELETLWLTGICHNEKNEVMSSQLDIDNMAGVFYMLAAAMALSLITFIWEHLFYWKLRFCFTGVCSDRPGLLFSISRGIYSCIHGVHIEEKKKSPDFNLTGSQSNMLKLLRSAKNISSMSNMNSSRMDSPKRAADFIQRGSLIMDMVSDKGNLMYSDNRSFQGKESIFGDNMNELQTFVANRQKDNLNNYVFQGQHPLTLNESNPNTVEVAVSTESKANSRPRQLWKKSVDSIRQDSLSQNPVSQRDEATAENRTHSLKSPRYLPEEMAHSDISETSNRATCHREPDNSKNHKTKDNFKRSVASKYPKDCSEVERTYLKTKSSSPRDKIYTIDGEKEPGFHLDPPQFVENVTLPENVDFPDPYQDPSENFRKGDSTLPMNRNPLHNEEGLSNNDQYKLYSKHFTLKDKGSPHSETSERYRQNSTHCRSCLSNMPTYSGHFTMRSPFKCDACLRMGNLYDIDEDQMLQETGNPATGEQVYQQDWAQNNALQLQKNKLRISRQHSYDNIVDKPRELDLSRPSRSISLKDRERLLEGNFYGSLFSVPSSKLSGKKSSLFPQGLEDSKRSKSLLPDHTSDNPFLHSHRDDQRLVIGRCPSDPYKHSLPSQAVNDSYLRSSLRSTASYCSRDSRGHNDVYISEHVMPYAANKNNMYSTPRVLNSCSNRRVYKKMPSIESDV

[3] = system: human volunteers and patients; details: cited from earlier work
patients with MDD = details: cited from earlier work

SMILES	Additive genetic effect of minor allele on change in MADRS total score ([1]; SNP rs1372472, minor allele T, therapeutic P value 0.0108)	Additive genetic effect of minor allele on change in MADRS total score ([1]; SNP rs3756007, minor allele C, therapeutic P value 0.0021)	Additive genetic effect of minor allele on change in MADRS total score ([1]; SNP rs11503016, minor allele T, therapeutic P value 0.0374)	Additive genetic effect of minor allele on change in MADRS total score ([1]; SNP rs17537359, minor allele C, therapeutic P value 0.0038)	improvement in minor allele carriers versus major allele homozygote ([1]; minor allele at rs3756007, rs11503016, rs17537359 and rs1372472, on average)	IC50 [2]	propensity for causing psychotomimetic effects ([3]; compared with effects found with ketamine exposure)	tolerability ([3]; more than 500 human volunteers and patients)	antidepressant effects (patients with MDD)
N[C@@H](Cc1ccccn1)c1ccccc1 [COMPOUND A, (S)-1-phenyl-2-(pyridin-2-yl)ethanamine]	−4.83	−12.84	−5.33	−9.40	greater improvement	350 nM	little propensity	very well tolerated	–
CNC1(c2ccccc2Cl)CCCCC1=O (stereo not drawn) [ketamine]	–	–	–	–	–	–	–	–	rapid antidepressant effects
